# US8592426B2, “Aryl-benzocycloalkyl amide derivatives” (Hoffmann—La Roche Inc., priority 2011, dated 2013)
# pIC50, pKi: −log10 of the molar value.
# Assays:
# [1] = target: T1, Bradykinin-1 receptor (Homo sapiens (Human), UniProt P46663); assay: Calcium mobilization assay (FLIPR, Fluo-4) in GeneBLAzer Bradykinin (B1)-NFAT-bla CHO-K1 cells; type: cell-based; conditions: antagonist activity; CHO-K1 cells stably overexpressing the human bradykinin 1 receptor; read-out: Ca mobilization Assay IC50
# Description: Calcium Mobilization Assay
# GeneBLAzer® Bradykinin (B1)-NFAT-bla CHO-K1 cells (from Invitrogen) stably overexpressing the human bradykinin 1 receptor were cultured in DMEM (high glucose) supplemented with 10% dialysed FBS, 1% NEAA (non essential amino acids) 1% penicillin/streptomycin, 1% G418 and 0.1 mg/ml zeocin.
# For the assay cells were grown overnight in 384-well black clear flat bottom polystyrene plates (Costar) at 37° C. at 5% CO2. After washing with DMEM, 20 mM Hepes, 2.5 mM probenecid, 0.1% BSA (DMEM assay buffer) cells were loaded with 4 μM Fluo-4 in the same DMEM assay buffer for 2 hours at 30° C. Excess dye was removed and cells were washed with DMEM assay buffer. 384-well compound plates were prepared with DMEM assay buffer/0.5% DMSO with or without various concentrations of test compounds. Usually compounds were tested for agonist and antagonist activity.
# Test compounds were added to the assay plate and agonist activity was monitored as fluorescence for 80 seconds with a FLIPR (488 nm excitation; 510-570 nm emission; Molecular Devices). After 20-30 min. of incubation at 30° C., 20 nM […] (R&D; Roche) was added and fluorescence was monitored again for 80 seconds. Increases in intracellular calcium are reported as maximum fluorescence after agonist exposure minus basal fluorescence before exposure.
# [2] = target: T1, Bradykinin-1 receptor; assay: Receptor binding assay (B1R Binding Assay), [3H]-Kallidin (Des Arg10, Leu9) displacement; conditions: membranes from CHO-K1 cells overexpressing Bradykinin-1 receptor; 6 nM radioligand
# Description: Binding assays were done with membranes from CHO-K1 cells overexpressing Bradykinin-1 receptor.
# To determine non-specific binding 10 μM Lys-(Des-Arg^9)-Bradykinin (Bachem) was added. Membranes were harvested through GF/B (glass fiber filter; PerkinElmer) plates, equilibrated with 0.5% polyethylenimine, air dried at 50° C. for 2 h. Radioactivity was determined by counting in a topcounter (NXT Packard).
# T1 sequence (P46663 whole entry): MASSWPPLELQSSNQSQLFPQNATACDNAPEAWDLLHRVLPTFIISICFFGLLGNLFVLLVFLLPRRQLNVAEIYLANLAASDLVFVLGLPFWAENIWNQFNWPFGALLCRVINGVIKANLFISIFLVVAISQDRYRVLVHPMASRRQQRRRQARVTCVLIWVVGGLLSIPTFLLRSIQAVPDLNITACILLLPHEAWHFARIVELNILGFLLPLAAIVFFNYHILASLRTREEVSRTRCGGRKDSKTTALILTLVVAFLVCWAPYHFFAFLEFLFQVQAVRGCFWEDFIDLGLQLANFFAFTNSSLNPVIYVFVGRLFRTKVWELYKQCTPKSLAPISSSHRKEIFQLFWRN
pIC50 [1],pKi [2],SMILES
9.52,8.46,"COc1cc(C(=O)NC2(C(=O)NC3CCc4cc(-c5cc(Cl)cc(F)c5-c5nnn(C)n5)cnc43)CC2)on1 (racemic) [Example 59, 3-Methoxy-isoxazole-5-carboxylic acid(1-{(rac)-3-[5-chloro-3-fluoro-2-(2-methyl-2H-tetrazol-5-yl)-phenyl]-6,7-dihydro-5H-[1]pyrindin-7-ylcarbamoyl}-cyclopropyl)-amide]"
7.76,6.58,"Cn1nnc(-c2c(F)cc(Cl)cc2-c2ccc3c(c2)SCC3NC(=O)C2(N)CC2)n1 (racemic) [Example 61, 1-Amino-cyclopropanecarboxylic acid{(rac)-6-[5-chloro-3-fluoro-2-(2-methyl-2H-tetrazol-5-yl)-phenyl]-2,3-dihydro-benzo[b]thiophen-3-yl}-amide]"
8.32,7.91,"Cc1nnc(C(=O)NC2(C(=O)NC3CSc4cc(-c5cc(Cl)cc(F)c5-c5nnn(C)n5)ccc43)CC2)o1 (racemic) [Example 62, 5-Methyl-[1,3,4]oxadiazole-2-carboxylic acid(1-{(rac)-6-[5-chloro-3-fluoro-2-(2-methyl-2H-tetrazol-5-yl)-phenyl]-2,3-dihydro-benzo[b]thiophen-3-ylcarbamoyl}-cyclopropyl)-amide]"
9.70,8.32,"Cn1nnc(-c2c(F)cc(Cl)cc2-c2ccc3c(c2)SCC3NC(=O)C2(NC(=O)c3cncnc3)CC2)n1 (racemic) [Example 63, Pyrimidine-5-carboxylic acid(1-{(rac)-6-[5-chloro-3-fluoro-2-(2-methyl-2H-tetrazol-5-yl)-phenyl]-2,3-dihydro-benzo[b]thiophen-3-ylcarbamoyl}-cyclopropyl)-amide]"
9.30,8.15,"Cn1nnc(-c2c(F)cc(Cl)cc2-c2ccc3c(c2)SCC3NC(=O)C2(NC(=O)c3ccno3)CC2)n1 (racemic) [Example 64, Isoxazole-5-carboxylic acid(1-{(rac)-6-[5-chloro-3-fluoro-2-(2-methyl-2H-tetrazol-5-yl)-phenyl]-2,3-dihydro-benzo[b]thiophen-3-ylcarbamoyl}-cyclopropyl)-amide]"
9.70,8.36,"COc1cc(C(=O)NC2(C(=O)NC3CSc4cc(-c5cc(Cl)cc(F)c5-c5nnn(C)n5)ccc43)CC2)on1 (racemic) [Example 65, 3-Methoxy-isoxazole-5-carboxylic acid(1-{(rac)-6-[5-chloro-3-fluoro-2-(2-methyl-2H-tetrazol-5-yl)-phenyl]-2,3-dihydro-benzo[b]thiophen-3-ylcarbamoyl}-cyclopropyl)-amide]"
7.45,6.89,"Cc1nc(-c2c(F)cc(Cl)cc2-c2cnc3c(c2)CCC3NC(=O)C2(NC(=O)c3ccnnc3)CC2)no1 (single isomer, unassigned) [Example 40, Pyridazine-4-carboxylic acid(1-{(R or S) 3-[5-chloro-3-fluoro-2-(5-methyl-[1,2,4]oxadiazol-3-yl)-phenyl]-6,7-dihydro-5H-[1]pyrindin-7-ylcarbamoyl}-cyclopropyl)-amide]"
9.70,8.40,"Cc1nc(-c2c(F)cc(Cl)cc2-c2cnc3c(c2)CCC3NC(=O)C2(NC(=O)c3ccnnc3)CC2)no1 (single isomer, unassigned) [Example 41, Pyridazine-4-carboxylic acid(1-{(S or R) 3-[5-chloro-3-fluoro-2-(5-methyl-[1,2,4]oxadiazol-3-yl)-phenyl]-6,7-dihydro-5H-[1]pyrindin-7-ylcarbamoyl}-cyclopropyl)-amide]"
9.22,8.21,"Cc1nc(-c2c(F)cc(Cl)cc2-c2ccc3c(c2)CC[C@@H]3NC(=O)C2(NC(=O)C(F)(F)F)CC2)no1 [Example 5, 1-(2,2,2-Trifluoro-acetylamino)-cyclopropanecarboxylic acid{(S)-5-[5-chloro-3-fluoro-2-(5-methyl-[1,2,4]oxadiazol-3-yl)-phenyl]-indan-1-yl}-amide]"
6.34,6.42,"COC(=O)c1c(Cl)cccc1-c1ccc2c(c1)CC[C@@H]2NC(=O)C1(NC(=O)C(F)(F)F)COC1 [Example 6, 2-Chloro-6-((S)-1-{[3-(2,2,2-trifluoro-acetylamino)-oxetane-3-carbonyl]-amino}-indan-5-yl)-benzoic acid methyl ester]"
7.54,7.43,"Cc1nc(-c2c(F)cc(Cl)cc2-c2ccc3c(c2)CC[C@@H]3NC(=O)C2(NC(=O)C(F)(F)F)COC2)no1 [Example 7, 3-(2,2,2-Trifluoro-acetylamino)-oxetane-3-carboxylic acid{(S)-5-[5-chloro-3-fluoro-2-(5-methyl-[1,2,4]oxadiazol-3-yl)-phenyl]-indan-1-yl}-amide]"
7.61,7.52,"Cn1nnc(-c2c(F)cc(Cl)cc2-c2ccc3c(c2)CC[C@@H]3NC(=O)C2(NC(=O)C(F)(F)F)COC2)n1 [Example 8, 3-(2,2,2-Trifluoro-acetylamino)-oxetane-3-carboxylic acid{(S)-5-[5-chloro-3-fluoro-2-(2-methyl-2H-tetrazol-5-yl)-phenyl]-indan-1-yl}-amide]"
6.48,6.17,"Cc1nc(-c2c(F)cc(Cl)cc2-c2ccc3c(c2)CC[C@@H]3NC(=O)C2(NC(=O)OC(C)(C)C)CC2)no1 [Example 23, (1-{(S)-5-[5-Chloro-3-fluoro-2-(5-methyl-[1,2,4]oxadiazol-3-yl)-phenyl]-indan-1-ylcarbamoyl}-cyclopropyl)-carbamic acid tert-butyl ester]"
8.30,7.44,"Cc1nc(-c2c(F)cc(Cl)cc2-c2ccc3c(c2)CC[C@@H]3NC(=O)C2(N)CC2)no1 [Example 24, 1-Amino-cyclopropanecarboxylic acid{(S)-5-[5-chloro-3-fluoro-2-(5-methyl-[1,2,4]oxadiazol-3-yl)-phenyl]-indan-1-yl}-amide]"
10.00,8.51,"Cc1nc(-c2c(F)cc(Cl)cc2-c2ccc3c(c2)CC[C@@H]3NC(=O)C2(NC(=O)c3cncnc3)CC2)no1 [Example 25, Pyrimidine-5-carboxylic acid(1-{(S)-5-[5-chloro-3-fluoro-2-(5-methyl-[1,2,4]oxadiazol-3-yl)-phenyl]-indan-1-ylcarbamoyl}-cyclopropyl)-amide]"
9.70,8.59,"COc1ncc(C(=O)NC2(C(=O)N[C@H]3CCc4cc(-c5cc(Cl)cc(F)c5-c5noc(C)n5)ccc43)CC2)cn1 [Example 26, 2-Methoxy-pyrimidine-5-carboxylic acid(1-{(S)-5-[5-chloro-3-fluoro-2-(5-methyl-[1,2,4]oxadiazol-3-yl)-phenyl]-indan-1-ylcarbamoyl}-cyclopropyl)-amide]"
9.40,8.44,"Cc1nc(-c2c(F)cc(Cl)cc2-c2ccc3c(c2)CC[C@@H]3NC(=O)C2(NC(=O)c3ccnnc3)CC2)no1 [Example 27, Pyridazine-4-carboxylic acid(1-{(S)-5-[5-chloro-3-fluoro-2-(5-methyl-[1,2,4]oxadiazol-3-yl)-phenyl]-indan-1-ylcarbamoyl}-cyclopropyl)-amide]"
9.52,8.39,"Cc1nc(-c2c(F)cc(Cl)cc2-c2ccc3c(c2)CC[C@@H]3NC(=O)C2(NC(=O)c3ccno3)CC2)no1 [Example 28, Isoxazole-5-carboxylic acid(1-{(S)-5-[5-chloro-3-fluoro-2-(5-methyl-[1,2,4]oxadiazol-3-yl)-phenyl]-indan-1-ylcarbamoyl}-cyclopropyl)-amide]"
